US8993606B2, “Oral formulations for treating metal overload” (FerroKin BioSciences, Inc., priority 2011, dated 2015)
Like-named read-outs stand apart in the source and are kept apart here.

Tests used:
[1] = Example 4: seven-day dosing in iron-overloaded human subjects (PK, tolerability); assay type: in vivo; conditions: for CL renal / half-life / Cmax / Tmax / AUC(0-t) / Vd/F: human; for CL renal: plasma and urine; for half-life / Cmax / Tmax / AUC(0-t) / Vd/F: plasma; for AUC(0-t): read-out: AUC(0-24); for Vd/F: read-out: Vz/F
Description: A dose-escalation study to assess the safety, tolerability, pharmacokinetics and pharmacodynamics of Compound 1, which correspond to a capsule formulation of (S)-3′-(OH)-DADFT-PE was conducted in 16 adult patients with iron overloaded consequent to transfusions. […] Compound 1 was supplied as capsules containing 50 mg, 100 mg, or 250 mg. The capsules were manufactured in accordance with Annex 13 and the principle of cGMP at Aptuit (10245 Hickman Mills Drive, Kansas City, Mo. 64137).
Patients 18 years or older with documented transfusional iron overload requiring chronic treatment with deferiprone, deferasirox or deferoxamine were eligible. Causes of iron overload included β-thalassemia major, α-thalassemia or α-thalassemia hydrops)(α°α°, sickle cell disease, and congenital dyserythropoietic anemia. Each of the four cohorts contained four patients. For the purposes of this study, transfusion dependence was defined as requiring eight or more transfusions per year. The iron burden inclusion criteria were defined as: (i) liver iron concentration greater than 2 mg/g (dry weight, liver) as determined by R2 magnetic resonance imaging; (ii) a cardiac magnetic resonance imaging T2* greater than 12 ms; and (iii) serum ferritin in excess of 600 ng/mL. Eligible patients who consented to participation in the study discontinued their regular chelation therapy for up to 5 days during a wash-out period prior to their first dose of Compound 1. Patients received Compound 1 in capsules taken orally in a fasted state.
In this study, a standard pharmacokinetic protocol of plasma sampling was performed throughout the 7 days of dosing and continuing for 3 days after the last dose on day 7. Actual blood sampling and urine collection times were used in all pharmacokinetic analyses. […] A formally validated bioanalytical method for quantifying total Compound 1 in human plasma and urine was developed. The drug was extracted from plasma using solid phase extraction and analyzed using high performance liquid chromatography with tandem mass spectrometric determination, and d3-[Compound 1] as an internal standard. The method was used to measure drug (MW 400) over the range of 5 to 2000 ng/mL (12.5-5000 nM) and at sample dilutions of 20- to 50-fold.
Pharmacokinetic parameters for Compound 1 were estimated using non-compartmental analysis. Only plasma and urine concentrations greater than the lower limits of quantitation (LOQ, 5 ng/mL in plasma, 5 ng/mL in urine) for the assays were used in the pharmacokinetic analysis.
Plasma concentrations, blood sampling times, urine concentrations, urine volumes, and the amount excreted in each interval, and pharmacokinetic parameters were listed by dose group and patient. Plasma concentrations and pharmacokinetic parameters were summarized by dose group using descriptive statistics: linearity with respect to Cmax and AUC(0-24) was assessed using the power model, i.e. P=a×Doseb, where P represents the parameter and a and b are constants. A log-log plot of P versus Dose is linear and a value of b of ≈1 indicates linearity. The equation was fitted to the individual patients' data using non-linear least squares regression. Parameters were compared among doses using descriptive statistics. Due to the small numbers of patients per panel, no formal statistical analyses were done.

[2] = Example 5: single-dose study in iron-overloaded human subjects (PK); assay type: in vivo; conditions: for Tmax / AUC(0-inf) / AUC(0-t) / Cmax / half-life: human, plasma
Description: Example 5 was a single-dose, escalating study in iron-overloaded subjects. Men between the ages of 18-50 years qualified to participate if they were able to voluntarily give consent and had transfusional overload requiring treatment with an iron chelator and were willing to discontinue their chelation for a period of at least 7 days prior to screening and during the study. Eligible subjects had serum ferritin levels>300 ng/mL and ≦5000 ng/mL. Subjects had blood pressure in the normal range, ECG within normal limits and tested negative for drugs of abuse. Subjects were also HIV and Hepatitis B negative and agreed to use an approved method of contraception during the study.
The objectives of this study were to assess the safety, tolerability, and pharmacokinetics of ascending single doses of Compound 1. Additionally, dose proportionality and pharmacodynamics of Compound 1 were assessed. Four doses of Compound 1 (6, 10, 16, and 32 mg/kg), in capsule form, were evaluated in this study. Each dose level was tested in a single subject, with appropriate evaluation of safety done prior to escalating the dose. Following screening, the first subject was dosed and then confined to the clinical research unit for 24 hours to conduct safety and pharmacokinetic assessments. The subject was released from the clinic on Day 2 and returned daily for follow-up visits for 5 days post-dosing. This process was followed for each dose level.
All 4 subjects who received a dose of Compound 1 were included in the analysis of pharmacokinetic parameters.

[3] = single oral dose 6 mg/kg, subject 1
[4] = single oral dose 10 mg/kg, subject 2
[5] = single oral dose 16 mg/kg, subject 3
[6] = single oral dose 32 mg/kg, subject 4

In the case of `COCCOCCOCCOc1cccc(C2=N[C@@](C)(C(=O)O)CS2)c1O` [Compound 1, (S)-4,5-Dihydro-2-[2-hydroxy-3-(3,6,9-trioxadecyloxy)phenyl]-4-methyl-4-thiazolecarboxylate magnesium hydroxide], the CL/F ([1]; 3 mg/kg daily 7 days oral) is reported as 162 ± 85 mL/min, the CL/F ([1]; 8 mg/kg daily 7 days oral) is reported as 225 ± 142 mL/min and the CL/F ([1]; 16 mg/kg daily 7 days oral) is reported as 206 ± 78.4 mL/min. For the same compound, the CL/F ([1]; 32 mg/kg daily 7 days oral) was 172 ± 60.1 mL/min, the “serious adverse events associated with the drug” value ([1]; 3-32 mg/kg daily 7 days) was “no serious adverse events” and the “dose proportionality of plasma concentrations” value ([1]; all four doses 3-32 mg/kg) was “dose-proportional, linear pharmacokinetics”. The tolerability ([1]; daily for 7 days at doses up to 32 mg/kg) was “well tolerated at all dose levels”, the CL renal ([1]; 3 mg/kg daily 7 days oral) was 75.2 ± 46.8 mL/min and the CL renal ([1]; 8 mg/kg daily 7 days oral) was 105 ± 62.9 mL/min. The CL renal ([1]; 16 mg/kg daily 7 days oral) was 83.2 ± 36.5 mL/min, the CL renal ([1]; 32 mg/kg daily 7 days oral) was 73.6 ± 37.8 mL/min and the half-life ([1]; oral, 40 mg/kg, 5th cohort of four patients, read-out: Mean half life (t½) (converted)) was 26.6 h. For the same compound, the half-life ([1]; oral, across doses 3-32 mg/kg, read-out: t½ (converted)) was 19.2 h, the Cmax ([1]; 3 mg/kg daily 7 days oral) was 5910 ± 2300 ng/mL and the Tmax ([1]; 3 mg/kg daily 7 days oral) was 1.31 h. It also gave an AUC(0-t) ([1]; 3 mg/kg daily 7 days oral) of 19500 ± 11300 ng·h/mL, a Vd/F ([1]; 3 mg/kg daily 7 days oral) of 185 ± 84.1 L and a half-life ([1]; 3 mg/kg daily 7 days oral, read-out: t½ (converted)) of 16.2 ± 8.32 h. It also gave a Cmax ([1]; 8 mg/kg daily 7 days oral) of 15000 ± 4440 ng/mL, a Tmax ([1]; 8 mg/kg daily 7 days oral) of 1.18 h and an AUC(0-t) ([1]; 8 mg/kg daily 7 days oral) of 44900 ± 30800 ng·h/mL. It also gave a Vd/F ([1]; 8 mg/kg daily 7 days oral) of 311 ± 137 L, a half-life ([1]; 8 mg/kg daily 7 days oral, read-out: t½ (converted)) of 20.9 ± 11.3 h and a Cmax ([1]; 16 mg/kg daily 7 days oral) of 38200 ng/mL. The Tmax ([1]; 16 mg/kg daily 7 days oral) was 1 h, the AUC(0-t) ([1]; 16 mg/kg daily 7 days oral) was 92300 ± 36600 ng·h/mL and the Vd/F ([1]; 16 mg/kg daily 7 days oral) was 339 ± 166 L. It also gave a half-life ([1]; 16 mg/kg daily 7 days oral, read-out: t½ (converted)) of 21.3 ± 11.8 h, a Cmax ([1]; 32 mg/kg daily 7 days oral) of 60200 ± 27500 ng/mL and a Tmax ([1]; 32 mg/kg daily 7 days oral) of 1.49 h. The AUC(0-t) ([1]; 32 mg/kg daily 7 days oral) was 158000 ± 43500 ng·h/mL, the Vd/F ([1]; 32 mg/kg daily 7 days oral) was 214 ± 2.94 L and the half-life ([1]; 32 mg/kg daily 7 days oral, read-out: t½ (converted)) was 18.7 ± 4.48 h. For the same compound, the “total fraction of oral dose excreted in urine over 24 hour, average” value ([2]; 4 dose levels) was 39%, the “dose proportionality of Cmax and AUC” value ([2]; 6-32 mg/kg dose range) was “dose-proportional” and the “plasma concentrations at 24 hours post-dose” value ([2]; all subjects, 6, 10, 16 and 32 mg/kg) was < 1 % of Cmax. The Tmax ([2]; single oral dose 6 mg/kg (360 mg), subject 1, read-out: tmax) was 1 h, the AUC(0-inf) [2, 3] was 46300 ng·h/mL and the AUC(0-t) [2, 3] was 45900 ng·h/mL. The Cmax [2, 3] was 14900 ng/mL, the Tmax ([2]; single oral dose 10 mg/kg (583 mg), subject 2, read-out: tmax) was 0.77 h and the AUC(0-inf) [2, 4] was 69700 ng·h/mL. It also gave an AUC(0-t) [2, 4] of 69200 ng·h/mL, a Cmax [2, 4] of 35400 ng/mL and a Tmax ([2]; single oral dose 16 mg/kg (1288 mg), subject 3, read-out: tmax) of 1 h. The AUC(0-inf) [2, 5] was 122000 ng·h/mL, the AUC(0-t) [2, 5] was 122000 ng·h/mL and the Cmax [2, 5] was 38500 ng/mL. It also gave a Tmax ([2]; single oral dose 32 mg/kg (2214.4 mg), subject 4, read-out: tmax) of 1 h, an AUC(0-inf) [2, 6] of 159000 ng·h/mL and an AUC(0-t) [2, 6] of 157000 ng·h/mL. It also gave a Cmax [2, 6] of 47600 ng/mL, a half-life ([2]; male, oral, 6-32 mg/kg single dose, read-out: terminal half-life, range) of 16 to 30 h and a half-life ([2]; male, oral, averaged across all dose levels, read-out: mean t1/2 (converted)) of 23.7 h. For the same compound, the Tmax ([2]; male, oral, averaged across all dose levels, read-out: mean tmax) was 0.925 h, the “total fraction of oral dose excreted in urine over 24 hour” value ([2]; range across the 4 dose levels) was 28-51% and the CL/F [2, 3] was 7.9 L/h. For the same compound, the CL/F [2, 4] was 8.4 L/h, the CL/F [2, 5] was 10.6 L/h and the CL/F [2, 6] was 14.1 L/h.
